ChEMBL document CHEMBL4342522 (J Med Chem, 2020)

Legend:
[1] = target: T1, Bromodomain-containing protein 4 (Homo sapiens, UniProt O60885); assay: biochemical; assay type: cell-based
Description: Inhibition of human N-terminal His6 tagged BRD4 BD1 (57 to 168) residues expressed in Escherichia coli BL21(DE3) cells after 1 hr by TR-FRET assay

[2] = Unbound hepatic clearance in human liver microsomes; assay type: ADME, Microsome
[3] = Permeability in dog MDCK cells by PAMPA; assay type: ADME, cell-based, Canis lupus familiaris; conditions: read-out: permeability
[4] = target: T1, Bromodomain-containing protein 4; assay: Inhibition of human N-terminal His6 tagged BRD4 BD2 (352 to 457) residues expressed in Escherichia coli BL21(DE3) cells after 1 hr by TR-FRET assay
[5] = Unbound hepatic clearance in rat liver microsomes; assay type: ADME, Microsome
SKM-1 = assay: Antiproliferative activity against human SKM1 cells assessed as reduction in cell viability after 5 days by CellTiter-Glo assay; assay type: functional, cell-based; conditions: SKM-1, 120 h
NCI-H1299 = assay: Antiproliferative activity against human H1299 cells assessed as reduction in cell viability after 5 days by CellTiter-Glo assay; assay type: functional, cell-based; conditions: NCI-H1299, 120 h
[6] = Unbound hepatic clearance in mouse liver microsomes; assay type: ADME, Microsome

SMILES | Ki [1] [nM] | CL free [2] [mL/min/kg] | Papp [3] [×10⁻⁶ cm/s] | Ki [4] [nM] | CL free [5] [mL/min/kg] | IC50 (SKM-1) [nM] | IC50 (NCI-H1299) [nM] | CL free [6] [mL/min/kg]
CCNC(=O)c1cc2c(-c3cc(S(=O)(=O)CC)ccc3Oc3c(C)cccc3Cl)cn(C)c(=O)c2[nH]1 | 30 | 255 | 2.73 | 0.9 | 2120 | 6.2 | 670 | 
CCNC(=O)c1cc2c(-c3cc(S(=O)(=O)CC)ccc3N3CCc4cccc(C)c43)cn(C)c(=O)c2[nH]1 | 9 |  |  | 0.5 |  | 4.2 | 340 | 
CCNC(=O)c1cc2c(-c3cc(S(=O)(=O)C4CC4)ccc3Oc3c(C)cccc3C)cn(C)c(=O)c2[nH]1 | 38 | 300 | 8.33 | 0.6 | 1780 | 20 | 730 | 1720
CCNC(=O)c1cc2c(-c3cc(S(=O)(=O)CC)ccc3-n3ccc4cccc(C)c43)cn(C)c(=O)c2[nH]1 | 380 | 700 | 14.7 | 1.1 | 1550 | 23 | 1900 | 1830
COc1ccc2c(c1)[C@]13CCCC[C@@H]1[C@H](C2)N(C)CC3 [DEXTROMETHORPHAN] |  |  |  |  | 123 |  |  | 
CCNC(=O)c1cc2c(-c3cc(S(=O)(=O)CC)ccc3Oc3ccccc3C(C)(C)C)cn(C)c(=O)c2[nH]1 | 22 | 1620 | 5.6 | 2.1 | 1430 | 21 | 460 | 
CCNC(=O)c1cc2c(-c3cc(S(N)(=O)=O)ccc3Oc3c(C)cccc3C)cn(C)c(=O)c2[nH]1 | 66 |  |  | 1.1 |  | 7 | 3000 | 
CCNC(=O)c1cc2c(-c3cc(S(C)(=O)=O)ccc3Oc3ccc(F)cc3F)cn(C)c(=O)c2[nH]1 |  | 60 | 10.8 | 1.3 | < 51.7 | 6.6 | 370 | < 91.7
CCNC(=O)c1cc2c(-c3cc(S(=O)(=O)CC)ccc3Oc3ccccc3C)cn(C)c(=O)c2[nH]1 | 8.4 | 142 | 3.68 | 0.8 |  | 3.3 | 95 | 1100
CCNC(=O)c1cc2c(-c3cc(C(=O)O)ccc3Oc3c(C)cccc3C)cn(C)c(=O)c2[nH]1 | 300 |  | 0.74 | 2.8 |  | 3100 | > 10000 | 
CCNC(=O)c1ccc(Oc2c(C)cccc2C)c(-c2cn(C)c(=O)c3[nH]c(C(=O)NCC)cc23)c1 | 130 | 217 | 2.63 | 1.8 |  | 19 | 1500 | 317
Cc1cc(F)cc(C)c1Oc1ccc(C(C)(C)O)cc1-c1cn(C)c(=O)c2[nH]c(C(=O)NC(C)(C)C(F)(F)F)cc12 |  | 9500 | 0.57 |  | 18300 | 80 | 2600 | 46700
CCNC(=O)c1cc2c(-c3cc(S(=O)(=O)CC)ccc3-c3c(C)cccc3C)cn(C)c(=O)c2[nH]1 | > 12000 | 550 | 9 | 22 | 617 | 1300 | > 10000 | 
CCNC(=O)c1cc2c(-c3cc(S(=O)(=O)CC)ccc3Oc3c(C)cccc3F)cn(C)c(=O)c2[nH]1 | 13 | 150 | 15.4 | 0.9 | 2530 | 2.5 | 260 | 
CCNC(=O)c1cc2c(-c3cc(C4(O)COC4)ccc3Oc3c(C)cc(F)cc3C)cn(C)c(=O)c2[nH]1 |  | 350 | 1.66 | 1.1 | 267 | 24 | 2700 | 533
Cc1cc(F)cc(C)c1Oc1ccc(C(C)(C)O)cc1-c1cn(C)c(=O)c2[nH]c(C(=O)NC34CC(C3)C4)cc12 | 440 | 2000 | 0.97 | 1.3 |  | 10 | 1100 | 11800
CCNC(=O)c1cc2c(-c3cc(S(=O)(=O)CC)ccc3Oc3c(C)cccc3C(C)(C)C)cn(C)c(=O)c2[nH]1 | 400 |  |  | 15 |  | 290 | 3200 | 
CCNC(=O)c1cc2c(-c3cc(NC(=O)OC)ccc3Oc3c(C)cc(F)cc3C)cn(C)c(=O)c2[nH]1 | 290 | 550 | 0.92 | 2.9 |  | 50 | 2400 | 6330
